Reference: US20260124311A1, “POLYMER-DRUG CONJUGATES FOR STING PATHWAY ACTIVATION” (Vanderbilt University, priority 2022, published 2026)

Columns and labels:
[1] = system: STING knockout THP1 Dual cell line; experiment: STING knockout THP1 Dual cell line reporter assay; assay type: cell-based, human; settings: FIG. 19C-D
IRF and NF-kb pathway = experiment: THP-1 Dual reporter assay of IRF and NF-kb pathway activation; assay type: cell-based, human; settings: FIG. 19A-B
Procedure: Activation of STING. THP1-Dual cells (InvivoGen) were cultured in Roswell Park Memorial Institute (RPMI) 1640 Medium (Gibco) supplemented with 2 mM L-glutamine, 25 mM HEPES, 10% heat-inactivated fetal bovine serum (HI-FBS; Gibco), 100 U mL^−1, penicillin/100 μg mL^−1, streptomycin (Gibco), and 100 μg/mL Normocin. Cells were subjected to 10 μg/mL Blasticidin and 100 μg/mL Zeocin for continual selection after every cell passage. 96-well plates (REF 655180; Greiner Bio-One) were used for screening agonist activity. Reporter cells were seeded at 25,000 cells/well in 100 μL media and treatments were administered in 100 μL of medium. Results were collected 24 hours after treatment using a Quanti-Luc™ (InvivoGen) assay on cell supernatants following manufacturer's instructions. Luminescence was quantified using a plate reader (Synergy H1 Multi-Mode Microplate Reader; Biotek) after supernatants were transferred to opaque-bottom 96-well plates (REF 655073; Greiner Bio-One).

[2] = system: GFP-STING expressing murine embryonic fibroblasts; settings: FIG. 21
[3] = system: Interferon-β, CXCL10, TNF, IL-6; experiment: PCR analysis of kinetics of STING-mediated gene expression; assay type: cell-based

Substance: diABZI(CTA)-DMA-50k [50 kDa diABZI-DMA (33)]
- IRF and NF-κβ responses in STING knockout cells [1]: lack of activity
- IRF and NF-kb pathway activation (IRF and NF-kb pathway): both signaling pathways are engaged
- STING activation dynamics (STING-puncta, confocal) [2]: delayed STING activation
- time to activation of STING signaling after endocytosis [3]: ≤ 2 h
